# Patent US20020137929A1, “1 - (3-heterocyclylphenyl) isothiourea, -isourea, -guanidine and -amidine herbicidal agents” (Intellectual Property Department, BASF Aktiengesellschaft, priority 1998, published 2002)
# Legend:
# ABUTH (Velvetleaf) [1] = assay: Postemergence herbicidal evaluation; format: in vivo, Abutilon theophrasti; details: postemergence
# How it was run: (§1)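 First, seedlings were raised for around two weeks. Next, test material in 50/50 acetone/water containing 0.5% TWEEN 20 was sprayed through a nozzle at 40 psi, equivalent to about 0.0156–0.500 kg/ha. Finally, after 4–5 weeks in the greenhouse, plants were rated 0–9.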
# [2] = system: IPOHE (Morningglory, Ivyleaf); assay: Postemergence herbicidal evaluation; format: in vivo, Ipomoea hederacea; details: postemergence
# How it was run: as §1
# SETVI (Foxtail, Green) = assay: Postemergence herbicidal evaluation; format: in vivo, Setaria viridis; details: postemergence
# How it was run: as §1
# [3] = system: GLXMAW (Soybean, Williams); assay: Postemergence herbicidal evaluation; format: in vivo, Glycine max, (L.) Merr. cv Williams; details: postemergence
# How it was run: as §1
# ZEAMX (Corn, Field) = assay: Postemergence herbicidal evaluation; format: in vivo, Zea mays; details: postemergence
# How it was run: as §1
# ABUTH (Velvetleaf) [4] = assay: Preemergence herbicidal evaluation; format: in vivo, Abutilon theophrasti; details: rated 4-5 weeks after treatment
# How it was run: (§2)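 Scores (0–9) reflect visual comparison with control plants for stand, vigor, malformation, size and chlorosis. Compound was applied to the soil after sowing, before emergence, as an aqueous acetone spray (about 0.0156–0.500 kg/ha), and cups were kept in a greenhouse for 4–5 weeks.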
# AMBEL (Ragweed, Common) = assay: Preemergence herbicidal evaluation; format: in vivo, Ambrosia artemisifolia; details: rated 4-5 weeks after treatment
# How it was run: as §2
# CASOB (Sicklepod) = assay: Preemergence herbicidal evaluation; format: in vivo, Cassia obtusifolia; details: rated 4-5 weeks after treatment
# How it was run: as §2
# [5] = system: IPOHE (Morningglory, Ivyleaf); assay: Preemergence herbicidal evaluation; format: in vivo, Ipomoea hederacea; details: rated 4-5 weeks after treatment
# How it was run: as §2
# ECHCG (Barnyardgrass) = assay: Preemergence herbicidal evaluation; format: in vivo, Echinochloa crus-galli; details: rated 4-5 weeks after treatment
# How it was run: as §2
# [6] = system: ECHORC (Watergrass (Calif.)); assay: Preemergence weed control under flooded paddy conditions; format: in vivo, Echinochloa oryzoides; details: rated 3-4 weeks after treatment
# How it was run: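 Seeds or propagules sown in silt loam kept flooded 1.5-3 cm; compounds in 50/50 acetone/water pipetted into flood water at about 0.0313 to 0.500 kg/ha. Greenhouse; visual 0-9 rating versus untreated control 3-4 weeks after treatment.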
# CYPSE (Flatsedge) = assay: as above; format: in vivo, Cyperus serotinus; details: rated 3-4 weeks after treatment
# How it was run: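 Visual injury scored 0-9 against control three to four weeks post-treatment, greenhouse-grown. Application: acetone/water (50/50) solutions dosed directly into flood water (1.5-3 cm over silt loam, planted top 0.5 cm), roughly 0.0313 to 0.500 kg/ha active ingredient.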
# [7] = system: ECHORC (Watergrass (Calif.)); assay: Postemergence weed control under flooded paddy conditions; format: in vivo, Echinochloa oryzoides; details: postemergence weeds, rated 3 to 4 weeks after treatment
# How it was run: (§3)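 Weeds 3 to 5 cm tall and rice seedlings at the 1.5 to 2.5 leaf stage were flooded, with water held 1.5 to 3 cm above the soil. Compounds in 50/50 v/v aqueous/acetone went into the flood water at about 0.0313 to 0.500 kg/ha. Visual 0-9 ratings versus control were made 3 to 4 weeks later.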
# CYPIR (Rice Flatsedge) = assay: as above; format: in vivo, Cyperus iria; details: postemergence weeds, rated 3 to 4 weeks after treatment
# How it was run: as §3
smiles,measurement,setting,value
"C=CCN1C(=O)C(CC(=O)OC(C)C)SC1=Nc1cc(-n2c(=O)cc(C(F)(F)F)n(C)c2=O)c(F)cc1Cl (stereo not drawn) [Compound 66, Isopropyl 3-allyl-2-{{2-chloro-5-[3,6-dihydro-3-methyl-2,6-dioxo-4-(trifluoromethyl)-1(2H)-pyrimidinyl]-4-fluorophenyl}imino}-4-oxo-5-thiazolidineacetate]",ABUTH herbicidal rating,ABUTH (Velvetleaf) [1]; rate 0.0158 kg/ha,9.0
same,ABUTH herbicidal rating,ABUTH (Velvetleaf) [1]; rate 0.0313 kg/ha,9.0
same,ABUTH herbicidal rating,ABUTH (Velvetleaf) [1]; rate 0.0625 kg/ha,9.0
same,ABUTH herbicidal rating,ABUTH (Velvetleaf) [1]; rate 0.1250 kg/ha,9.0
same,IPOHE herbicidal rating,[2]; rate 0.0158 kg/ha,9.0
same,IPOHE herbicidal rating,[2]; rate 0.0313 kg/ha,9.0
same,IPOHE herbicidal rating,[2]; rate 0.0625 kg/ha,9.0
same,IPOHE herbicidal rating,[2]; rate 0.1250 kg/ha,9.0
same,SETVI herbicidal rating,"SETVI (Foxtail, Green); rate 0.0158 kg/ha",2.0
same,SETVI herbicidal rating,"SETVI (Foxtail, Green); rate 0.0313 kg/ha",9.0
same,SETVI herbicidal rating,"SETVI (Foxtail, Green); rate 0.0625 kg/ha",9.0
same,SETVI herbicidal rating,"SETVI (Foxtail, Green); rate 0.1250 kg/ha",9.0
same,GLXMAW herbicidal rating,[3]; rate 0.0158 kg/ha,7.0
same,GLXMAW herbicidal rating,[3]; rate 0.0313 kg/ha,8.5
same,GLXMAW herbicidal rating,[3]; rate 0.0625 kg/ha,8.5
same,GLXMAW herbicidal rating,[3]; rate 0.1250 kg/ha,9.0
same,ZEAMX herbicidal rating,"ZEAMX (Corn, Field); rate 0.0158 kg/ha",7.0
same,ZEAMX herbicidal rating,"ZEAMX (Corn, Field); rate 0.0313 kg/ha",8.5
same,ZEAMX herbicidal rating,"ZEAMX (Corn, Field); rate 0.0625 kg/ha",9.0
same,ZEAMX herbicidal rating,"ZEAMX (Corn, Field); rate 0.1250 kg/ha",9.0
same,Preemergence herbicidal rating ABUTH,ABUTH (Velvetleaf) [4]; rate 0.0156 kg/ha,5.0
same,Preemergence herbicidal rating ABUTH,ABUTH (Velvetleaf) [4]; rate 0.0313 kg/ha,8.0
same,Preemergence herbicidal rating ABUTH,ABUTH (Velvetleaf) [4]; rate 0.0625 kg/ha,9.0
same,Preemergence herbicidal rating ABUTH,ABUTH (Velvetleaf) [4]; rate 0.1250 kg/ha,9.0
same,Preemergence herbicidal rating ABUTH,ABUTH (Velvetleaf) [4]; rate 0.2500 kg/ha,9.0
same,Preemergence herbicidal rating ABUTH,ABUTH (Velvetleaf) [4]; rate 0.5000 kg/ha,9.0
same,Preemergence herbicidal rating AMBEL,"AMBEL (Ragweed, Common); rate 0.0156 kg/ha",0.5
same,Preemergence herbicidal rating AMBEL,"AMBEL (Ragweed, Common); rate 0.0313 kg/ha",1.0
same,Preemergence herbicidal rating AMBEL,"AMBEL (Ragweed, Common); rate 0.0625 kg/ha",3.0
same,Preemergence herbicidal rating AMBEL,"AMBEL (Ragweed, Common); rate 0.1250 kg/ha",9.0
same,Preemergence herbicidal rating AMBEL,"AMBEL (Ragweed, Common); rate 0.2500 kg/ha",9.0
same,Preemergence herbicidal rating AMBEL,"AMBEL (Ragweed, Common); rate 0.5000 kg/ha",9.0
same,Preemergence herbicidal rating CASOB,CASOB (Sicklepod); rate 0.0156 kg/ha,0.0
same,Preemergence herbicidal rating CASOB,CASOB (Sicklepod); rate 0.0313 kg/ha,0.0
same,Preemergence herbicidal rating CASOB,CASOB (Sicklepod); rate 0.0625 kg/ha,0.0
same,Preemergence herbicidal rating CASOB,CASOB (Sicklepod); rate 0.1250 kg/ha,0.5
same,Preemergence herbicidal rating CASOB,CASOB (Sicklepod); rate 0.2500 kg/ha,0.5
same,Preemergence herbicidal rating CASOB,CASOB (Sicklepod); rate 0.5000 kg/ha,3.0
same,Preemergence herbicidal rating IPOHE,[5]; rate 0.0156 kg/ha,0.0
same,Preemergence herbicidal rating IPOHE,[5]; rate 0.0313 kg/ha,0.0
same,Preemergence herbicidal rating IPOHE,[5]; rate 0.0625 kg/ha,0.5
same,Preemergence herbicidal rating IPOHE,[5]; rate 0.1250 kg/ha,3.0
same,Preemergence herbicidal rating IPOHE,[5]; rate 0.2500 kg/ha,6.0
same,Preemergence herbicidal rating IPOHE,[5]; rate 0.5000 kg/ha,9.0
same,Preemergence herbicidal rating ECHCG,ECHCG (Barnyardgrass); rate 0.0156 kg/ha,0.0
same,Preemergence herbicidal rating ECHCG,ECHCG (Barnyardgrass); rate 0.0313 kg/ha,0.0
same,Preemergence herbicidal rating ECHCG,ECHCG (Barnyardgrass); rate 0.0625 kg/ha,0.5
same,Preemergence herbicidal rating ECHCG,ECHCG (Barnyardgrass); rate 0.1250 kg/ha,0.5
same,Preemergence herbicidal rating ECHCG,ECHCG (Barnyardgrass); rate 0.2500 kg/ha,3.0
same,Preemergence herbicidal rating ECHCG,ECHCG (Barnyardgrass); rate 0.5000 kg/ha,9.0
same,ECHORC herbicidal effect rating,[6]; 0.0313 kg/ha,7.0
same,ECHORC herbicidal effect rating,[6]; 0.0625 kg/ha,7.0
same,ECHORC herbicidal effect rating,[6]; 0.1250 kg/ha,9.0
same,ECHORC herbicidal effect rating,[6]; 0.2500 kg/ha,9.0
same,CYPSE herbicidal effect rating,CYPSE (Flatsedge); 0.0313 kg/ha,0.0
same,CYPSE herbicidal effect rating,CYPSE (Flatsedge); 0.0625 kg/ha,0.0
same,CYPSE herbicidal effect rating,CYPSE (Flatsedge); 0.1250 kg/ha,4.0
same,CYPSE herbicidal effect rating,CYPSE (Flatsedge); 0.2500 kg/ha,4.0
same,Herbicidal rating ECHORC,[7]; Rate 0.0313 kg/ha,7.0
same,Herbicidal rating ECHORC,[7]; Rate 0.0625 kg/ha,7.0
same,Herbicidal rating ECHORC,[7]; Rate 0.1250 kg/ha,9.0
same,Herbicidal rating ECHORC,[7]; Rate 0.2500 kg/ha,9.0
same,Herbicidal rating CYPIR,CYPIR (Rice Flatsedge); Rate 0.0313 kg/ha,6.0
same,Herbicidal rating CYPIR,CYPIR (Rice Flatsedge); Rate 0.0625 kg/ha,6.0
same,Herbicidal rating CYPIR,CYPIR (Rice Flatsedge); Rate 0.1250 kg/ha,7.0
same,Herbicidal rating CYPIR,CYPIR (Rice Flatsedge); Rate 0.2500 kg/ha,7.0
